Test system: K86415-001-R-J1-PDC complex spheroids, viability
Test: Anticancer human tumor K86415-001-R-J1-PDC patient-derived lung adenocarcinoma cell line growth inhibition [RAS]
Details: for IC50: curve of first compound; for viability, T/C: stronger effect = lower value; active = viability on the fitted dose curve at most 10% of control; inactive = the rest
Outline: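 Agents were tested in combination matrices in half-log decrements from a top concentration at or near clinical Cmax (10 microM if undetermined). Targets were multi-cell spheroids of tumour lines plus HUVEC and MSC stromal cells.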

[1] = second compound 0.000949 µM, first compound 0.0316 µM
[2] = second compound 0.000949 µM, first compound 0.1 µM
[3] = second compound 0.000949 µM, first compound 0.316 µM
[4] = second compound 0.000949 µM, first compound 1 µM
[5] = second compound 0.003 µM, first compound 0.0316 µM
[6] = second compound 0.003 µM, first compound 0.1 µM
[7] = second compound 0.003 µM, first compound 0.316 µM
[8] = second compound 0.003 µM, first compound 1 µM
[9] = second compound 0.00949 µM, first compound 0.0316 µM
[10] = second compound 0.00949 µM, first compound 0.1 µM
[11] = second compound 0.00949 µM, first compound 0.316 µM
[12] = second compound 0.00949 µM, first compound 1 µM
[13] = second compound 0.03 µM, first compound 0.0316 µM
[14] = second compound 0.03 µM, first compound 0.1 µM
[15] = second compound 0.03 µM, first compound 0.316 µM
[16] = second compound 0.03 µM, first compound 1 µM
[17] = second compound 0.0949 µM, first compound 0.0316 µM
[18] = second compound 0.0949 µM, first compound 0.1 µM
[19] = second compound 0.0949 µM, first compound 0.316 µM
[20] = second compound 0.0949 µM, first compound 1 µM
[21] = second compound 0.3 µM, first compound 0.0316 µM
[22] = second compound 0.3 µM, first compound 0.1 µM
[23] = second compound 0.3 µM, first compound 0.316 µM
[24] = second compound 0.3 µM, first compound 1 µM
[25] = second compound 0.000949 µM, first compound 3.16 µM
[26] = second compound 0.000949 µM, first compound 10 µM
[27] = second compound 0.003 µM, first compound 3.16 µM
[28] = second compound 0.003 µM, first compound 10 µM
[29] = second compound 0.00949 µM, first compound 3.16 µM
[30] = second compound 0.00949 µM, first compound 10 µM
[31] = second compound 0.03 µM, first compound 3.16 µM
[32] = second compound 0.03 µM, first compound 10 µM
[33] = second compound 0.0949 µM, first compound 3.16 µM
[34] = second compound 0.0949 µM, first compound 10 µM
[35] = second compound 0.3 µM, first compound 3.16 µM
[36] = second compound 0.3 µM, first compound 10 µM
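Note: spheroids exposed to agents for seven days before readout.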

CCN1CCN(Cc2ccc(Nc3ncc(F)c(-c4cc(F)c5nc(C)n(C(C)C)c5c4)n3)nc2)CC1 + CCn1c(-c2cccnc2C(C)OC)c2c3cc(ccc31)N1CCOC(CC(NC(=O)C(C(C)C)N(C)C(=O)C3(F)CCN(C(=O)C#CC(C)(C)N(C)C)CC3)C(=O)N3CCCC(N3)C(=O)OCC(C)(C)C2)C1
inactive: viability, T/C (second compound 0.000949 µM, first compound 0.00316 µM) 39.1% | viability, T/C (second compound 0.000949 µM, first compound 0.01 µM) 31.2% | viability, T/C [1] 20% | viability, T/C [2] 30.3% | viability, T/C [3] 31.1% | viability, T/C [4] 20.5% | viability, T/C (second compound 0.003 µM, first compound 0.00316 µM) 12.1% | viability, T/C (second compound 0.003 µM, first compound 0.01 µM) 13.1% | viability, T/C [5] 12.2% | viability, T/C [6] 13.9% | viability, T/C [7] 16.7% | viability, T/C [8] 14.6% | viability, T/C (second compound 0.00949 µM, first compound 0.00316 µM) 11.7% | viability, T/C (second compound 0.00949 µM, first compound 0.01 µM) 12.4% | viability, T/C [9] 10.6% | viability, T/C [10] 11.8% | viability, T/C [11] 14.3% | viability, T/C [12] 19.3% | viability, T/C (second compound 0.03 µM, first compound 0.00316 µM) 14% | viability, T/C (second compound 0.03 µM, first compound 0.01 µM) 11.8% | viability, T/C [13] 11.1% | viability, T/C [14] 14% | viability, T/C [15] 14.5% | viability, T/C [16] 13.9% | viability, T/C (second compound 0.0949 µM, first compound 0.00316 µM) 12.4% | viability, T/C (second compound 0.0949 µM, first compound 0.01 µM) 14.8% | viability, T/C [17] 15.8% | viability, T/C [18] 14.8% | viability, T/C [19] 14.4% | viability, T/C [20] 13.8% | viability, T/C (second compound 0.3 µM, first compound 0.00316 µM) 13.6% | viability, T/C (second compound 0.3 µM, first compound 0.01 µM) 12% | viability, T/C [21] 11.1% | viability, T/C [22] 10.8% | viability, T/C [23] 9.64% | viability, T/C [24] 11.7%
< 3.16 nM: IC50 (second compound 0.000949 µM) | IC50 (second compound 0.003 µM) | IC50 (second compound 0.00949 µM) | IC50 (second compound 0.03 µM) | IC50 (second compound 0.0949 µM) | IC50 (second compound 0.3 µM)

C[C@@H](NC(=O)c1ncnc(N)c1Cl)c1ncc(C(=O)Nc2cc(C(F)(F)F)c(Cl)cn2)s1 + CCn1c(-c2cccnc2C(C)OC)c2c3cc(ccc31)N1CCOC(CC(NC(=O)C(C(C)C)N(C)C(=O)C3(F)CCN(C(=O)C#CC(C)(C)N(C)C)CC3)C(=O)N3CCCC(N3)C(=O)OCC(C)(C)C2)C1
inactive: viability, T/C [1] 44.6% | viability, T/C [2] 55.7% | viability, T/C [3] 35.6% | viability, T/C [4] 56.4% | viability, T/C [25] 45.2% | viability, T/C [26] 21.5% | viability, T/C [5] 18.7% | viability, T/C [6] 15.2% | viability, T/C [7] 16.7% | viability, T/C [8] 16.3% | viability, T/C [27] 16.3% | viability, T/C [28] 12.6% | viability, T/C [9] 14.2% | viability, T/C [10] 14% | viability, T/C [11] 13.8% | viability, T/C [12] 14.1% | viability, T/C [29] 12.6% | viability, T/C [30] 13.3% | viability, T/C [13] 14.6% | viability, T/C [14] 14.2% | viability, T/C [15] 17% | viability, T/C [16] 16.4% | viability, T/C [31] 13.6% | viability, T/C [32] 12.3% | viability, T/C [17] 12.1% | viability, T/C [18] 14.3% | viability, T/C [19] 12.7% | viability, T/C [20] 14.5% | viability, T/C [33] 13.6% | viability, T/C [34] 13.8% | viability, T/C [21] 12% | viability, T/C [22] 13.5% | viability, T/C [23] 14.9% | viability, T/C [24] 15.3% | viability, T/C [35] 13.8% | viability, T/C [36] 13.1%
< 31.6 nM: IC50 (second compound 0.000949 µM) | IC50 (second compound 0.003 µM) | IC50 (second compound 0.00949 µM) | IC50 (second compound 0.03 µM) | IC50 (second compound 0.0949 µM) | IC50 (second compound 0.3 µM)

Cc1nc(N2CCC3(CC2)COC(C)C3N)c(CO)nc1Sc1ccnc(N)c1Cl (stereo unspecified) + CCn1c(-c2cccnc2C(C)OC)c2c3cc(ccc31)N1CCOC(CC(NC(=O)C(C(C)C)N(C)C(=O)C3(F)CCN(C(=O)C#CC(C)(C)N(C)C)CC3)C(=O)N3CCCC(N3)C(=O)OCC(C)(C)C2)C1
inactive: viability, T/C [1] 29.3% | viability, T/C [2] 16.5% | viability, T/C [13] 10.5%
active: viability, T/C [3] 7.93% | viability, T/C [4] 9.19% | viability, T/C [25] 6.66% | viability, T/C [26] 4.12% | viability, T/C [5] 8.24% | viability, T/C [6] 6.74% | viability, T/C [7] 5.5% | viability, T/C [8] 7.84% | viability, T/C [27] 3.89% | viability, T/C [28] 3.06% | viability, T/C [9] 7.59% | viability, T/C [10] 5.87% | viability, T/C [11] 5.22% | viability, T/C [12] 4.38% | viability, T/C [29] 3.17% | viability, T/C [30] 3.06% | viability, T/C [14] 6.71% | viability, T/C [15] 5.16% | viability, T/C [16] 4.22% | viability, T/C [31] 3.35% | viability, T/C [32] 3.62% | viability, T/C [17] 9.27% | viability, T/C [18] 6.46% | viability, T/C [19] 4.18% | viability, T/C [20] 4.43% | viability, T/C [33] 3.06% | viability, T/C [34] 2.77% | viability, T/C [21] 8.31% | viability, T/C [22] 6.71% | viability, T/C [23] 5.12% | viability, T/C [24] 4.01% | viability, T/C [35] 3.5% | viability, T/C [36] 2.86%
< 31.6 nM: IC50 (second compound 0.000949 µM) | IC50 (second compound 0.003 µM) | IC50 (second compound 0.00949 µM) | IC50 (second compound 0.03 µM) | IC50 (second compound 0.0949 µM) | IC50 (second compound 0.3 µM)

Reference: PubChem BioAssay AID2060893 (Molecular Pharmacology Branch, DTP, NCI, 2025)
